# Laboratory results: US20230151049A1, “Compounds Useful in HIV Therapy” (priority 2020, published 2023)
# Read-outs that look alike come from different tables or passages of the source.
# Experiment: in vivo
# Settings: for concentration at 1 day: day 1
# Source text: General Protocol for Prodrugs Rat PK Studies Conducted at ChemPartner, China
# A total of three naïve male Wistar Han rats, 200-250 g, were received from Beijing VR Laboratory Animal Co. LTD. Following an acclimation period, the animals were assigned to the study based on acceptable health as determined by a staff veterinarian and catheter patency. Fasting of the animals before or after dosing was not required.
# On Day 1, each animal received a single intramuscular injection of prepared test article at a target dose level of 20 mg/kg equivalent of EFdA and at a dose volume of 2 mL/kg. The injection sites were at gastrocnemius and identified with an indelible marker for daily monitoring during the study. The animals were manually restrained for dosing and were not sedated. The dose suspension was mixed well by inversion before each dose to ensure homogeneity. […] In addition, all animals are monitored twice daily by the veterinary staff for clinical abnormalities.
# Blood samples were collected from the study animals as detailed in the sample collection Table 6 below
# Each blood sample for PK (200 μL) was collected from tail vein. The blood was transferred to a tube containing NaF/Na2EDTA anticoagulant and inverted several times to mix. Draw 150 μL whole blood from the tube, add 150 uL 100 mM ammonium acetate, pH 4 buffer and mix well. The resulting blood samples were transferred to individual polypropylene tubes and immediately placed on dry ice until storage at nominally −80° C. prior to LC-MS/MS analysis.
# [1] = day 63, single IM Example 11A 20 mg/kg equivalent of EFdA
# [2] = day 70, single IM Example 11A 20 mg/kg equivalent of EFdA
# [3] = day 77, single IM Example 11A 20 mg/kg equivalent of EFdA
# [4] = day 84, single IM Example 11A 20 mg/kg equivalent of EFdA
# [5] = day 91, single IM Example 11A 20 mg/kg equivalent of EFdA
structure (smiles),measurement,setting,value
"C#C[C@]1(COP(=O)(N[C@@H](Cc2cc(F)cc(F)c2)C(=O)OCCCCCCCCCCCCCCCCCCCCCC)Oc2ccccc2)O[C@@H](n2cnc3c(N)nc(F)nc32)C[C@@H]1O (single isomer, unassigned) [Example 42B]",Mean concentration of EFdA,"day 7, single IM Example 42B 64 mg/kg","BQL (BQL = below quantification limit, 0.3 ng/mL for both)"
same,Mean concentration of EFdA,"day 14, single IM Example 42B 64 mg/kg","BQL (BQL = below quantification limit, 0.3 ng/mL for both)"
same,Mean concentration of EFdA,"day 21, single IM Example 42B 64 mg/kg","BQL (BQL = below quantification limit, 0.3 ng/mL for both)"
same,Mean concentration of EFdA,"day 28, single IM Example 42B 64 mg/kg","BQL (BQL = below quantification limit, 0.3 ng/mL for both)"
same,Mean concentration of EFdA,"day 35, single IM Example 42B 64 mg/kg","BQL (BQL = below quantification limit, 0.3 ng/mL for both)"
same,Mean concentration of EFdA,"day 42, single IM Example 42B 64 mg/kg","BQL (BQL = below quantification limit, 0.3 ng/mL for both)"
same,Mean concentration of EFdA,"day 49, single IM Example 42B 64 mg/kg","BQL (BQL = below quantification limit, 0.3 ng/mL for both)"
same,Mean concentration of EFdA,"day 56, single IM Example 42B 64 mg/kg","BQL (BQL = below quantification limit, 0.3 ng/mL for both)"
same,Mean concentration of EFdA,"day 63, single IM Example 42B 64 mg/kg","BQL (BQL = below quantification limit, 0.3 ng/mL for both)"
same,Mean concentration of EFdA,"day 70, single IM Example 42B 64 mg/kg","BQL (BQL = below quantification limit, 0.3 ng/mL for both)"
same,Mean concentration of EFdA,"day 77, single IM Example 42B 64 mg/kg","BQL (BQL = below quantification limit, 0.3 ng/mL for both)"
same,Mean concentration of EFdA,"day 84, single IM Example 42B 64 mg/kg","BQL (BQL = below quantification limit, 0.3 ng/mL for both)"
"C#C[C@]1(COP(=O)(N[C@@H](Cc2ccccc2)C(=O)OCCCCCCCCCCCCCCCCC)Oc2ccccc2)O[C@@H](n2cnc3c(N)nc(F)nc32)C[C@@H]1O (single isomer, unassigned) [Example 20A]",Mean concentration of EFdA,"day 77, single IM Example 20A 57 mg/kg","BQL (BQL = below quantification limit, 0.3 ng/mL for Example 20A and 0.1-0.3 ng/mL for EFdA)"
same,Mean concentration of EFdA,"day 84, single IM Example 20A 57 mg/kg","BQL (BQL = below quantification limit, 0.3 ng/mL for Example 20A and 0.1-0.3 ng/mL for EFdA)"
same,concentration at 1 day,"male, Wistar Han, rat, in vivo, single IM Example 20A 57 mg/kg, read-out: Mean concentration of Example 20A",15.3 ng/mL
same,concentration at 7 day,"male, Wistar Han, rat, in vivo, day 7, single IM Example 20A 57 mg/kg, read-out: Mean concentration of Example 20A",14.6 ng/mL
same,concentration at 14 day,"male, Wistar Han, rat, in vivo, day 14, single IM Example 20A 57 mg/kg, read-out: Mean concentration of Example 20A",13.8 ng/mL
same,concentration at 21 day,"male, Wistar Han, rat, in vivo, day 21, single IM Example 20A 57 mg/kg, read-out: Mean concentration of Example 20A",9.76 ng/mL
same,concentration at 28 day,"male, Wistar Han, rat, in vivo, day 28, single IM Example 20A 57 mg/kg, read-out: Mean concentration of Example 20A",8.45 ng/mL
same,concentration at 35 day,"male, Wistar Han, rat, in vivo, day 35, single IM Example 20A 57 mg/kg, read-out: Mean concentration of Example 20A",13.3 ng/mL
same,concentration at 42 day,"male, Wistar Han, rat, in vivo, day 42, single IM Example 20A 57 mg/kg, read-out: Mean concentration of Example 20A",5.27 ng/mL
same,concentration at 49 day,"male, Wistar Han, rat, in vivo, day 49, single IM Example 20A 57 mg/kg, read-out: Mean concentration of Example 20A",4.25 ng/mL
same,concentration at 56 day,"male, Wistar Han, rat, in vivo, day 56, single IM Example 20A 57 mg/kg, read-out: Mean concentration of Example 20A",3.2 ng/mL
same,concentration at 63 day,"male, Wistar Han, rat, in vivo, day 63, single IM Example 20A 57 mg/kg, read-out: Mean concentration of Example 20A",4.84 ng/mL
same,concentration at 70 day,"male, Wistar Han, rat, in vivo, day 70, single IM Example 20A 57 mg/kg, read-out: Mean concentration of Example 20A",2.74 ng/mL
same,concentration at 77 day,"male, Wistar Han, rat, in vivo, day 77, single IM Example 20A 57 mg/kg, read-out: Mean concentration of Example 20A",4 ng/mL
same,concentration at 84 day,"male, Wistar Han, rat, in vivo, day 84, single IM Example 20A 57 mg/kg, read-out: Mean concentration of Example 20A",3.32 ng/mL
"C#C[C@]1(COP(=O)(N[C@@H](Cc2ccccc2)C(=O)OCCCCCCCCCCCC)OCC(=O)OCCCCCCCCCCCC)O[C@@H](n2cnc3c(N)nc(F)nc32)C[C@@H]1O (single isomer, unassigned) [Example 11A]",Mean concentration of EFdA,"day 21, single IM Example 11A 20 mg/kg equivalent of EFdA","BQL (BQL = below quantification limit, 0.3-0.5 ng/mL for Example 11A and 0.1-0.3 ng/mL for EFdA)"
same,Mean concentration of EFdA,"day 28, single IM Example 11A 20 mg/kg equivalent of EFdA","BQL (BQL = below quantification limit, 0.3-0.5 ng/mL for Example 11A and 0.1-0.3 ng/mL for EFdA)"
same,Mean concentration of EFdA,"day 35, single IM Example 11A 20 mg/kg equivalent of EFdA","BQL (BQL = below quantification limit, 0.3-0.5 ng/mL for Example 11A and 0.1-0.3 ng/mL for EFdA)"
same,Mean concentration of EFdA,"day 42, single IM Example 11A 20 mg/kg equivalent of EFdA","BQL (BQL = below quantification limit, 0.3-0.5 ng/mL for Example 11A and 0.1-0.3 ng/mL for EFdA)"
same,Mean concentration of EFdA,"day 49, single IM Example 11A 20 mg/kg equivalent of EFdA","BQL (BQL = below quantification limit, 0.3-0.5 ng/mL for Example 11A and 0.1-0.3 ng/mL for EFdA)"
same,Mean concentration of EFdA,"day 56, single IM Example 11A 20 mg/kg equivalent of EFdA","BQL (BQL = below quantification limit, 0.3-0.5 ng/mL for Example 11A and 0.1-0.3 ng/mL for EFdA)"
same,Mean concentration of EFdA,[1],"BQL (BQL = below quantification limit, 0.3-0.5 ng/mL for Example 11A and 0.1-0.3 ng/mL for EFdA)"
same,Mean concentration of Example 11A,[1],"BQL (BQL = below quantification limit, 0.3-0.5 ng/mL for Example 11A and 0.1-0.3 ng/mL for EFdA)"
same,Mean concentration of EFdA,[2],"BQL (BQL = below quantification limit, 0.3-0.5 ng/mL for Example 11A and 0.1-0.3 ng/mL for EFdA)"
same,Mean concentration of Example 11A,[2],"BQL (BQL = below quantification limit, 0.3-0.5 ng/mL for Example 11A and 0.1-0.3 ng/mL for EFdA)"
same,Mean concentration of EFdA,[3],"BQL (BQL = below quantification limit, 0.3-0.5 ng/mL for Example 11A and 0.1-0.3 ng/mL for EFdA)"
same,Mean concentration of Example 11A,[3],"BQL (BQL = below quantification limit, 0.3-0.5 ng/mL for Example 11A and 0.1-0.3 ng/mL for EFdA)"
same,Mean concentration of EFdA,[4],"BQL (BQL = below quantification limit, 0.3-0.5 ng/mL for Example 11A and 0.1-0.3 ng/mL for EFdA)"
same,Mean concentration of Example 11A,[4],"BQL (BQL = below quantification limit, 0.3-0.5 ng/mL for Example 11A and 0.1-0.3 ng/mL for EFdA)"
same,Mean concentration of EFdA,[5],"BQL (BQL = below quantification limit, 0.3-0.5 ng/mL for Example 11A and 0.1-0.3 ng/mL for EFdA)"
same,Mean concentration of Example 11A,[5],"BQL (BQL = below quantification limit, 0.3-0.5 ng/mL for Example 11A and 0.1-0.3 ng/mL for EFdA)"
same,concentration at 1 day,"male, Wistar Han, rat, whole blood, intramuscular, single IM Example 11A 20 mg/kg equivalent of EFdA, read-out: Mean concentration of Example 11A",207 ng/mL
same,concentration at 7 day,"male, Wistar Han, rat, whole blood, intramuscular, day 7, single IM Example 11A 20 mg/kg equivalent of EFdA, read-out: Mean concentration of Example 11A",6.93 ng/mL
same,concentration at 14 day,"male, Wistar Han, rat, whole blood, intramuscular, day 14, single IM Example 11A 20 mg/kg equivalent of EFdA, read-out: Mean concentration of Example 11A",0.991 ng/mL
same,concentration at 21 day,"male, Wistar Han, rat, whole blood, intramuscular, day 21, single IM Example 11A 20 mg/kg equivalent of EFdA, read-out: Mean concentration of Example 11A",2.68 ng/mL
same,concentration at 28 day,"male, Wistar Han, rat, whole blood, intramuscular, day 28, single IM Example 11A 20 mg/kg equivalent of EFdA, read-out: Mean concentration of Example 11A",2 ng/mL
same,concentration at 35 day,"male, Wistar Han, rat, whole blood, intramuscular, day 35, single IM Example 11A 20 mg/kg equivalent of EFdA, read-out: Mean concentration of Example 11A",1.35 ng/mL
same,concentration at 42 day,"male, Wistar Han, rat, whole blood, intramuscular, day 42, single IM Example 11A 20 mg/kg equivalent of EFdA, read-out: Mean concentration of Example 11A",1.03 ng/mL
same,concentration at 49 day,"male, Wistar Han, rat, whole blood, intramuscular, day 49, single IM Example 11A 20 mg/kg equivalent of EFdA, read-out: Mean concentration of Example 11A",0.929 ng/mL
same,concentration at 56 day,"male, Wistar Han, rat, whole blood, intramuscular, day 56, single IM Example 11A 20 mg/kg equivalent of EFdA, read-out: Mean concentration of Example 11A",0.95 ng/mL
